Test results published in ChEMBL document CHEMBL1201862, “PubChem BioAssay data set” (2004).
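How tested: cells in 96-well plates exposed to compound for 48 hours at five concentrations. Here, GI50 denotes the concentration required for 50% inhibition of growth.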 Active and inactive are the calls of the source. No stated cut-off is given here; in the data, active = GI50 up to about 1.1 µM and inactive = higher.

Key:
Experiment in all cases: growth of human tumour cells (NCI), 48 h
[1] = test system: 786-0
[2] = test system: A549
[3] = test system: ACHN
[4] = test system: BT-549
[5] = test system: CAKI-1
[6] = test system: CCRF-CEM
[7] = test system: COLO 205
[8] = test system: DU-145
[9] = test system: EKVX
[10] = test system: HCC 2998
[11] = test system: HCT-116
[12] = test system: HCT-15
[13] = test system: HL-60
[14] = test system: HOP-62
[15] = test system: HOP-92
[16] = test system: HT-29
[17] = test system: Hs-578T
[18] = test system: IGROV-1
[19] = test system: K562
[20] = test system: KM12
[21] = test system: LOX IMVI
[22] = test system: M14
[23] = test system: MCF7
[24] = test system: MDA-MB-231
[25] = test system: MDA-MB-435
[26] = test system: MDA-N
[27] = test system: MOLT-4
[28] = test system: Malme-3M
[29] = test system: NCI-H226
[30] = test system: NCI-H23
[31] = test system: NCI-H522
[32] = test system: NCI/ADR-RES
[33] = test system: OVCAR-3
[34] = test system: OVCAR-4
[35] = test system: OVCAR-5
[36] = test system: OVCAR-8
[37] = test system: PC-3
[38] = test system: RPMI-8226
[39] = test system: RXF 393
[40] = test system: SF-268
[41] = test system: SF-295
[42] = test system: SF-539
[43] = test system: SK-MEL-28
[44] = test system: SK-MEL-2
[45] = test system: SK-MEL-5
[46] = test system: SK-OV-3
[47] = test system: SN12C
[48] = test system: SNB-19
[49] = test system: SNB-75
[50] = test system: SR
[51] = test system: SW-620
[52] = test system: T47D
[53] = test system: TK-10
[54] = test system: U-251
[55] = test system: UACC-257
[56] = test system: UACC-62
[57] = test system: UO-31

`CCOC(=O)C(NCc1cccc(C(F)(F)F)c1)(NC(=O)c1ccccc1)C(F)(F)F` (configuration not stated) was tested, and the GI50 [1] was 28.5 µM (inactive), the GI50 [2] was 22.9 µM (inactive) and the GI50 [3] was 25.9 µM (inactive). For the same compound, the GI50 [4] was 20.5 µM (inactive), the GI50 [5] was 14.4 µM (inactive) and the GI50 [6] was > 100 µM (inactive). For the same compound, the GI50 [7] was 16.4 µM (inactive), the GI50 [8] was 46.5 µM (inactive) and the GI50 [9] was 24.2 µM (inactive). For the same compound, the GI50 [10] was 26.1 µM (inactive), the GI50 [11] was 28.5 µM (inactive) and the GI50 [12] was 23.1 µM. For the same compound, the GI50 [13] was 86.9 µM (inactive), the GI50 [14] was 37.9 µM (inactive) and the GI50 [15] was 27.2 µM (inactive). For the same compound, the GI50 [16] was 19.6 µM (inactive), the GI50 [17] was 47.1 µM (inactive) and the GI50 [18] was 23.7 µM (inactive). For the same compound, the GI50 [19] was 26.7 µM (inactive), the GI50 [20] was 28.1 µM (inactive) and the GI50 [21] was 19.9 µM (inactive). The GI50 [22] was 27.8 µM (inactive), the GI50 [23] was 43.3 µM (inactive) and the GI50 [24] was 11.5 µM (inactive). The GI50 [25] was 24.3 µM (inactive), the GI50 [26] was 34 µM (inactive) and the GI50 [27] was 26.1 µM (inactive). For the same compound, the GI50 [28] was 21.7 µM (inactive), the GI50 [29] was 27.2 µM (inactive) and the GI50 [30] was 21.8 µM (inactive). For the same compound, the GI50 [31] was 17.6 µM (inactive), the GI50 [32] was 18.8 µM (inactive) and the GI50 [33] was 22.8 µM (inactive). The GI50 [34] was 21.6 µM (inactive), the GI50 [35] was 71.1 µM (inactive) and the GI50 [36] was 32.4 µM (inactive). The GI50 [37] was 30.5 µM (inactive), the GI50 [38] was 9.1 µM (inactive) and the GI50 [39] was 9.08 µM (inactive). For the same compound, the GI50 [40] was 47.9 µM (inactive), the GI50 [41] was 44.1 µM (inactive) and the GI50 [42] was 24.2 µM (inactive). The GI50 [43] was 22.1 µM (inactive), the GI50 [44] was 21.4 µM (inactive) and the GI50 [45] was 30.5 µM (inactive). For the same compound, the GI50 [46] was 78.3 µM (inactive), the GI50 [47] was 31.2 µM (inactive) and the GI50 [48] was 71.9 µM (inactive). The GI50 [49] was 27.4 µM (inactive), the GI50 [50] was > 100 µM (inactive) and the GI50 [51] was 28.1 µM (inactive). For the same compound, the GI50 [52] was 22.2 µM (inactive), the GI50 [53] was 30.1 µM (inactive) and the GI50 [54] was 34 µM (inactive). The GI50 [55] was 18 µM (inactive), the GI50 [56] was 13.9 µM (inactive) and the GI50 [57] was 18.1 µM (inactive).
